The test system of one assay is KB-3-1 cells. As to the kind of experiment: SRB growth inhibition assay, KB-3-1. Type of assay: cell-based. The following applies: Homo sapiens, read-out: IC50 (cytotoxicity).
The next assay deals with KB V1 cells. As to the kind of experiment: SRB growth inhibition assay, KB V1. The following applies: for IC50: Homo sapiens, read-out: IC50 (cytotoxicity); for Resistant ratio: IC50 KB V1 / IC50 KB-3-1. Type of assay: cell-based, human.
Assay [1] deals with HepG2 cells. The assay can be described thus: SRB growth inhibition assay, HepG2. In kind it is cell-based. The following applies: Homo sapiens, read-out: IC50 (cytotoxicity). The protocol: (§1) K562, K562-DR, HepG2, HepG2-DR were cultured in RPMI-1640 medium containing 10% fetal bovine serum and 100 U/mL, antibiotics. […] Drug test: […] New calorimetric cytotoxicity assay for anticancer-drug screening. […] Mosmann T. Rapid colorimetric assay for cellular growth and survival: application to proliferation and cytotoxicity assays. […] Gerlier D, Thomasset N. […] Each growth inhibition experiment must be repeated three times and results are expressed as mean±standard deviation (SD). Solvents and media were included as blank control. In SRB assay, cells are inoculated at 5000 cells/well in a 96-well microplate and incubated overnight to let cells adhere. Drug treatment lasts for 72 hours and cells are fixed for 1 hour at 4° C. with 50 μl ice-cold 15% trichloroacetic acid and washed with triple-distilled water 5 times. […] The protein-bound dye is dissolved in 100 μl per well of 10 mM Tris base (pH 10.5). The color intensity of SRB, which positively correlate to cell number in preliminary experiments, is estimated at OD 515 nm.

In assay [2] the test system is HepG2-DR cells. The assay can be described thus: SRB growth inhibition assay, HepG2-DR. Type of assay: cell-based, human. As to conditions: for IC50: Homo sapiens, 72 h, read-out: IC50 (cytotoxicity); for Resistant ratio: IC50 HepG2-DR / IC50 HepG2. How it is done:
as §1

Another assay deals with K562 cells. The assay can be described thus: MTT growth inhibition assay, K562. Type of assay: cell-based. The following applies: Homo sapiens. The protocol:
(§2) K562, K562-DR, HepG2, HepG2-DR were cultured in RPMI-1640 medium containing 10% fetal bovine serum and 100 U/mL, antibiotics. […] Drug test: […] New calorimetric cytotoxicity assay for anticancer-drug screening. […] Mosmann T. Rapid colorimetric assay for cellular growth and survival: application to proliferation and cytotoxicity assays. […] Gerlier D, Thomasset N. […] Each growth inhibition experiment must be repeated three times and results are expressed as mean±standard deviation (SD). Solvents and media were included as blank control. In MTT assay, cells are inoculated at 5000 cells/well and are incubated overnight. Drug treatment lasts for 68 h. MTT (5 mg/ml in PBS) is added to each well (1:10 dilution). […] Viable cell number is estimated by correlating to OD at 570 nm.

The test system of a further assay is K562-DR cells. As to the kind of experiment: MTT growth inhibition assay, K562-DR. The following applies: for IC50: Homo sapiens, read-out: IC50 (cytotoxicity); for Resistant ratio: IC50 K562-DR / IC50 K562. Type of assay: cell-based, human. How it is done: as §2
The subject of assay [3] is HepG2 cells. As to the kind of experiment: Cell cycle distribution by flow cytometry, HepG2. In kind it is cell-based, human. The protocol: (§3) 1.2 Instruments: FACSCAN flow cytometry (Becton Dickinson Immunocytometry Systems, San Jose, Calif.), the obtained data were analyzed using the software of Macintosh CellQuest.
(§4) 1.3 Cell lines: HepG2, HepG2-DR.
(§5) 1.4 Drug treatment: HepG2 and HepG2-DR cells were respectively treated with each of cis-DMDCK, cis-DMDBK, trans-DMDCK, trans-DMDBK and doxorubicin for 48 hours, or treated respectively with the combination of doxorubicin and one of cis-DMDCK, cis-DMDBK, trans-DMDCK, trans-DMDBK for 48 hours.
(§6) 1.5 Treatment and detection of sample cells: after washed twice by ice-cold PBS, the cells were fixed with 70% ethanol at −20° C. overnight. The fixed cells were washed by PBS once and resuspended in 1 mL of PBS containing 100 μg/mL RNAase A and incubated at 37° C. for 30 minutes. Finally, propidium iodide solution (final concentration is 40 μg/mL,) was added to bind with DNA and incubated at room temperature for 5-10 minutes. Cells were analyzed by FACSCAN flow cytometry immediately.
A general note: In flow cytometry, cells or beads pass a laser one at a time.

For assay [4], the system named is HepG2-DR cells. As to the kind of experiment: Cell cycle distribution by flow cytometry (doxorubicin-induced G2/M arrest), HepG2-DR. Type of assay: cell-based, human. The following applies: for Cell cycle distribution, G0/G1 / Cell cycle distribution, G2/M / Cell cycle distribution, S / Cell cycle distribution, SubG1: HepG2-DR, 48 h. How it is done:
as §3, §4, §5, §6

For another assay, the system named is Pgp-MDR cells. The following applies: Wu et al., Eur J Pharmacol 2003; cited from earlier work.
[5] abbreviates: K562, MTT, (×10^−3), read-out: IC50 (cytotoxicity).

Like-named read-outs stand apart in the source and are kept apart here.

For `COc1cccc2c1C(=O)c1c(O)c3c(c(O)c1C2=O)C[C@@](O)(C(=O)CO)C[C@@H]3O[C@H]1C[C@H](N)[C@H](O)[C@H](C)O1` [Doxorubicin, reference compound], the IC50 (in general, the concentration that gives 50% inhibition) is 180 ± 40 nM in the assay with KB-3-1 cells (KB-3-1, SRB, 72 h); 32000 ± 2740 nM in the assay on KB V1 cells (KB V1, SRB, 72 h); 170 ± 100 nM with HepG2 cells [1] (HepG2, SRB, 72 h); 37300 ± 2420 nM in the assay on HepG2-DR cells [2] (HepG2-DR, SRB); 240 ± 80 nM with K562 cells (K562, MTT, read-out: IC50 (cytotoxicity)); 31000 ± 17100 nM with K562-DR cells (K562-DR, MTT). In addition, the Resistant ratio in the assay with KB V1 cells is given as 178; with HepG2-DR cells [2], 219; in the assay on K562-DR cells, 129. Further, the “Cell cycle distribution, G0/G1” value was determined as 4.92 ± 0.91% with HepG2 cells [3] (HepG2, 0.2 μM alone, 48 h); 51.33 ± 0.92% in the assay on HepG2-DR cells [4] (1 μM alone); 24.81 ± 0.23% in the assay on HepG2-DR cells [4] (10 μM alone); 12.05 ± 5.08% in the assay with HepG2-DR cells [4] (50 μM alone). For the same compound, the “Cell cycle distribution, G2/M” value in the assay on HepG2 cells [3] (HepG2, 0.2 μM alone, 48 h) came to 76.57 ± 1.32%; in the assay on HepG2-DR cells [4] (1 μM alone), 33.47 ± 0.17%; with HepG2-DR cells [4] (10 μM alone), 60.80 ± 0.79%; with HepG2-DR cells [4] (50 μM alone), 73.43 ± 9.00%. Further, the “Cell cycle distribution, S” value with HepG2 cells [3] (HepG2, 0.2 μM alone, 48 h) stood at 8.89 ± 0.83%; in the assay on HepG2-DR cells [4] (1 μM alone), 7.74 ± 3.57%; in the assay on HepG2-DR cells [4] (10 μM alone), 6.86 ± 1.80%; in the assay on HepG2-DR cells [4] (50 μM alone), 5.58 ± 1.34%. The “Cell cycle distribution, SubG1” value in the assay on HepG2 cells [3] (HepG2, 0.2 μM alone, 48 h) stood at 0.92 ± 0.45%; with HepG2-DR cells [4] (1 μM alone), 2.37 ± 0.34%; with HepG2-DR cells [4] (10 μM alone), 3.37 ± 0.17%; in the assay on HepG2-DR cells [4] (50 μM alone), 4.88 ± 0.75%. Besides, in the assay with HepG2 cells [3] (drug sensitive HepG2 cells), the “Concentration achieving almost a complete G2/M arrest” value is 0.2 µM. The “Concentration required for almost a complete G2/M arrest” value in the assay on HepG2-DR cells [4] (P-glycoprotein-overexpressing HepG2-DR cells) was “over 50 μM”.
As to `CC(=O)O[C@H]1C(=O)[C@@]2(C)[C@H]([C@H](OC(=O)c3ccccc3)[C@]3(O)C[C@H](OC(=O)[C@H](O)[C@@H](NC(=O)c4ccccc4)c4ccccc4)C(C)=C1C3(C)C)[C@]1(OC(C)=O)CO[C@@H]1C[C@@H]2O` [Paclitaxel], the IC50 in the assay with KB-3-1 cells (KB-3-1, SRB, 72 h) came out at 2 ± 1 nM; with KB V1 cells (KB V1, SRB, 72 h), 8000 ± 1480 nM; in the assay with HepG2 cells [1] (HepG2, SRB, 72 h, (×10^−3)) it was 6.07 ± 2.61 nM; with HepG2-DR cells [2] (HepG2-DR, SRB), 4230 ± 60 nM; in the assay on K562 cells (setting [5]) it was 0.6 ± 0.23 nM; with K562-DR cells (K562-DR, MTT), 3250 ± 450 nM. The figures for the Resistant ratio in the assay on KB V1 cells, in the assay with HepG2-DR cells [2] and with K562-DR cells were 4000, 696 and 5417, respectively.
For the compound `COc1ccc(C[C@H](N)C(=O)N[C@H]2[C@@H](O)[C@H](n3cnc4c(N(C)C)ncnc43)O[C@@H]2CO)cc1` [Puromycin], the IC50 with KB-3-1 cells (KB 3-1, 72 h) is 210 ± 50 nM; in the assay on KB V1 cells (KB-V1, 72 h), 79300 ± 8810 nM; in the assay with HepG2 cells [1] (HepG2, 72 h), 170 ± 70 nM; with HepG2-DR cells [2] it was 104000 ± 2480 nM; in the assay with K562 cells (K562, read-out: IC50 (cytotoxicity)), 390 ± 160 nM; in the assay on K562-DR cells, 47700 ± 9000 nM. Also, the values for the Resistant ratio in the assay with KB V1 cells, with HepG2-DR cells [2] and in the assay on K562-DR cells were 378, 597 and 122, respectively.
Consider `CC[C@]1(O)C[C@@H]2CN(CCc3c([nH]c4ccccc34)[C@@](C(=O)OC)(c3cc4c(cc3OC)N(C)[C@H]3[C@@](O)(C(=O)OC)[C@H](OC(C)=O)[C@]5(CC)C=CCN6CC[C@]43[C@@H]65)C2)C1` [Vinblastine], for which the IC50 with KB-3-1 cells (KB-3-1, SRB, 72 h, (×10^−3)) was 0.11 ± 0.01 nM; in the assay on KB V1 cells (KB V1, SRB, 72 h), 1040 ± 340 nM; with HepG2 cells [1] (HepG2, SRB, 72 h, (×10^−3)) it was 0.1 ± 0.01 nM; with HepG2-DR cells [2] (HepG2-DR, SRB) it was 310 ± 60 nM; in the assay on K562 cells (setting [5]), 0.88 ± 0.25 nM; with K562-DR cells (K562-DR, MTT), 200 ± 70 nM. The Resistant ratio in the assay on KB V1 cells is reported as 9271; in the assay on HepG2-DR cells [2], 3100; in the assay on K562-DR cells it was 227.
As for (±)-Praeruptorin A, the “Enhancement of drug sensitivity of Pgp-MDR cells” value in the assay on Pgp-MDR cells is listed as “only moderate”.

(Values after patent US20090111836A1, “Angular Pyranocoumarins, Process for Preparation and Uses Thereof” (CITY UNIVERSITY OF HONG KONG, priority 2007, published 2009).)
